Holding throughout (format): in vivo
The test system of one data set is Rice (Oryza sativa). Nature of the data set: Test Example 3 paddy field treatment, crop phytotoxicity. The note with it: paddy field treatment, transplanted rice Koshihikari, wettable powder, active ingredient 1 kg per hectare, 21st day after the dropping, index 0-5. A digest of the protocol: (§1)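 Scoring used a 0–5 scale of herbicidal effect or phytotoxicity, from <10% to ≥90%, taken 21 days after treatment. Treatment was 1 kg a.i./ha as diluted wettable powder dripped onto 4 cm-deep flooded pots sown with the weeds, 10 days after transplanting two-leaf Koshihikari rice.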

The subject of data set [1] is Chenopodium album. Nature of the data set: Test Example 1 upland field foliage treatment. The note with it: Table 4, upland field foliage treatment, index 0-5. A digest of the protocol: (§2)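 Post-emergence foliar spray, 1 kg a.i./ha, wettable powder diluted in water, applied 14 d after sowing in upland soil. Rating 21 d post-application, 0–5 scale: 5 ≥90%, 4 70–<90%, 3 50–<70%, 2 30–<50%, 1 10–<30%, 0 <10% effect or injury.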

For data set [2], the system named is Setaria viridis. The experiment in a line: Test Example 1 upland field foliage treatment. The note with it: Table 4, upland field foliage treatment, index 0-5. Put shortly:
as §2

For data set [3], the system named is Digitaria adscendens. The experiment in a line: Test Example 1 upland field foliage treatment. The note with it: Table 4, upland field foliage treatment, index 0-5. A digest of the protocol:
as §2

The subject of data set [4] is Stellaria media. The experiment in a line: Test Example 1 upland field foliage treatment. The note with it: Table 4, upland field foliage treatment, index 0-5. A digest of the protocol: as §2
The subject of data set [5] is soybean (Glycine max). The experiment in a line: Test Example 1 upland field foliage treatment, crop phytotoxicity. The note with it: Table 4, upland field foliage treatment, index 0-5. A digest of the protocol:
as §2

For data set [6], the system named is wheat (Triticum aestivum). Described as above. The note with it: Table 4, upland field foliage treatment, index 0-5. A digest of the protocol:
as §2

A further data set relates to Scirpus juncoides. The experiment in a line: Test Example 3 paddy field treatment. The note with it: paddy field treatment, wettable powder, active ingredient 1 kg per hectare, 21st day after the dropping, index 0-5. A digest of the protocol:
as §1

For another data set, the system named is Ammannia multiflora. Nature of the data set: Test Example 3 paddy field treatment. The note with it: paddy field treatment, wettable powder, active ingredient 1 kg per hectare, 21st day after the dropping, index 0-5. Put shortly:
as §1

The next data set has as its system Echinochloa crusgalli. The experiment in a line: Test Example 3 paddy field treatment. The note with it: paddy field treatment, wettable powder, active ingredient 1 kg per hectare, 21st day after the dropping, index 0-5. A digest of the protocol:
as §1

The next data set concerns Monochoria vaginalis. The experiment in a line: Test Example 3 paddy field treatment. The note with it: paddy field treatment, wettable powder, active ingredient 1 kg per hectare, 21st day after the dropping, index 0-5. Put shortly:
as §1

In data set [7] the test system is soybean (Glycine max). The experiment in a line: Test Example 2 upland soil treatment, crop phytotoxicity. The note with it: Table 5, upland soil treatment, index 0-5. Put shortly: (§3)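 Seeds are sown into upland soil and covered by roughly 1 cm of soil, then the compound, formulated as a wettable powder and diluted with water, is applied uniformly to the soil surface the following day at 1 kg active ingredient per hectare. Herbicidal effect or phytotoxicity is graded 0 to 5 after 21 days.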

For data set [8], the system named is wheat (Triticum aestivum). Described as above. The note with it: Table 5, upland soil treatment, index 0-5. A digest of the protocol:
as §3

Data set [9] has as its system Chenopodium album. The experiment in a line: Test Example 2 upland soil treatment. The note with it: Table 5, upland soil treatment, index 0-5. Put shortly:
as §3

Data set [10] deals with Setaria viridis. Nature of the data set: Test Example 2 upland soil treatment. The note with it: Table 5, upland soil treatment, index 0-5. Put shortly: as §3
Data set [11] relates to Digitaria adscendens. The experiment in a line: Test Example 2 upland soil treatment. The note with it: Table 5, upland soil treatment, index 0-5. Put shortly: as §3
Data set [12] concerns Stellaria media. Nature of the data set: Test Example 2 upland soil treatment. The note with it: Table 5, upland soil treatment, index 0-5. Put shortly: as §3

Each structure is given as a SMILES string.

With `CNC(=O)C(Cn1cc(C)c(-c2ccc(F)cc2)n1)=NOC` [Compound 44], in the data set with Rice (Oryza sativa), the “Herbicidal activity OS (phytotoxicity to rice)” value (“Herbicidal activity OS” below) is 1 (herbicidal effect of not less than 10% and less than 30%, or phytotoxicity of 10% or more and less than 30%). In addition, the “Herbicidal activity CA: Chenopodium album” value (from here on “Herbicidal activity CA”) with Chenopodium album [1] is 5 (herbicidal effect of not less than 90%, or phytotoxicity of 90% or more); with Chenopodium album [9], 5 (herbicidal effect of not less than 90%, or phytotoxicity of 90% or more). The “Herbicidal activity SV: Setaria viridis” value in the data set on Setaria viridis [2] is recorded as 5 (herbicidal effect of not less than 90%, or phytotoxicity of 90% or more); in the data set with Setaria viridis [10] it was 5 (herbicidal effect of not less than 90%, or phytotoxicity of 90% or more). In addition, the “Herbicidal activity DA: Digitaria adscendens” value (“Herbicidal activity DA” for short) in the data set on Digitaria adscendens [3] is reported as 5 (herbicidal effect of not less than 90%, or phytotoxicity of 90% or more); in the data set with Digitaria adscendens [11], 5 (herbicidal effect of not less than 90%, or phytotoxicity of 90% or more). Besides, the “Herbicidal activity SM: Stellaria media” value in the data set on Stellaria media [4] is 5 (herbicidal effect of not less than 90%, or phytotoxicity of 90% or more); in the data set with Stellaria media [12], 5 (herbicidal effect of not less than 90%, or phytotoxicity of 90% or more). Further, the “Herbicidal activity (phytotoxicity) GM: Soybean (Glycine max)” value (shortened to “Herbicidal activity (phytotoxicity) GM”) was 0 (herbicidal effect of not less than 0% and less than 10%, or phytotoxicity of 0% or more and less than 10%) with soybean (Glycine max) [5]; 0 (herbicidal effect of not less than 0% and less than 10%, or phytotoxicity of 0% or more and less than 10%) in the data set on soybean (Glycine max) [7]. Moreover, the “Herbicidal activity (phytotoxicity) TA: Wheat (Triticum aestivum)” value (from here on “Herbicidal activity (phytotoxicity) TA”) in data set [6] was 0 (herbicidal effect of not less than 0% and less than 10%, or phytotoxicity of 0% or more and less than 10%); in data set [8], 0 (herbicidal effect of not less than 0% and less than 10%, or phytotoxicity of 0% or more and less than 10%). Also, the “Herbicidal activity SJ” value in the data set with Scirpus juncoides was 5 (herbicidal effect of not less than 90%, or phytotoxicity of 90% or more). Further, in the data set with Ammannia multiflora, the “Herbicidal activity AM” value is given as 5 (herbicidal effect of not less than 90%, or phytotoxicity of 90% or more). In the data set on Echinochloa crusgalli, the “Herbicidal activity EC” value is recorded as 5 (herbicidal effect of not less than 90%, or phytotoxicity of 90% or more). Besides, the “Herbicidal activity MV” value with Monochoria vaginalis is 5 (herbicidal effect of not less than 90%, or phytotoxicity of 90% or more).

Regarding `CNC(=O)C(Cn1cc(C)c(-c2ccc(Cl)cc2)n1)=NOC` [Compound 47], the “Herbicidal activity OS” value in the data set on Rice (Oryza sativa) is 0 (herbicidal effect of not less than 0% and less than 10%, or phytotoxicity of 0% or more and less than 10%). Also, the “Herbicidal activity CA” value in the data set with Chenopodium album [1] is 5 (herbicidal effect of not less than 90%, or phytotoxicity of 90% or more); in the data set on Chenopodium album [9], 5 (herbicidal effect of not less than 90%, or phytotoxicity of 90% or more). For the same compound, the “Herbicidal activity SV: Setaria viridis” value in the data set on Setaria viridis [2] is 5 (herbicidal effect of not less than 90%, or phytotoxicity of 90% or more); with Setaria viridis [10] it was 5 (herbicidal effect of not less than 90%, or phytotoxicity of 90% or more). In addition, the “Herbicidal activity DA” value is recorded as 5 (herbicidal effect of not less than 90%, or phytotoxicity of 90% or more) with Digitaria adscendens [3] and 5 (herbicidal effect of not less than 90%, or phytotoxicity of 90% or more) in the data set with Digitaria adscendens [11]. The “Herbicidal activity SM: Stellaria media” value is 5 (herbicidal effect of not less than 90%, or phytotoxicity of 90% or more) with Stellaria media [4] and 5 (herbicidal effect of not less than 90%, or phytotoxicity of 90% or more) with Stellaria media [12]. Moreover, the “Herbicidal activity (phytotoxicity) GM” value in the data set with soybean (Glycine max) [5] was 0 (herbicidal effect of not less than 0% and less than 10%, or phytotoxicity of 0% or more and less than 10%); in the data set with soybean (Glycine max) [7], 0 (herbicidal effect of not less than 0% and less than 10%, or phytotoxicity of 0% or more and less than 10%). Further, the “Herbicidal activity (phytotoxicity) TA” value in data set [6] was 0 (herbicidal effect of not less than 0% and less than 10%, or phytotoxicity of 0% or more and less than 10%); in data set [8], 0 (herbicidal effect of not less than 0% and less than 10%, or phytotoxicity of 0% or more and less than 10%). Further, the “Herbicidal activity SJ” value with Scirpus juncoides is recorded as 5 (herbicidal effect of not less than 90%, or phytotoxicity of 90% or more). The “Herbicidal activity AM” value in the data set with Ammannia multiflora is listed as 5 (herbicidal effect of not less than 90%, or phytotoxicity of 90% or more). The “Herbicidal activity EC” value with Echinochloa crusgalli is recorded as 5 (herbicidal effect of not less than 90%, or phytotoxicity of 90% or more). Besides, the “Herbicidal activity MV” value with Monochoria vaginalis is 5 (herbicidal effect of not less than 90%, or phytotoxicity of 90% or more).

For `CNC(=O)C(Cn1cc(C)c(-c2ccc(Oc3ccccc3)cc2)n1)=NOC` [Compound 53], the “Herbicidal activity OS” value in the data set with Rice (Oryza sativa) was 0 (herbicidal effect of not less than 0% and less than 10%, or phytotoxicity of 0% or more and less than 10%). Further, the “Herbicidal activity CA” value in the data set on Chenopodium album [1] is 5 (herbicidal effect of not less than 90%, or phytotoxicity of 90% or more); with Chenopodium album [9], 4 (herbicidal effect of not less than 70% and less than 90%, or phytotoxicity of 70% or more and less than 90%). Besides, the “Herbicidal activity SV: Setaria viridis” value was 4 (herbicidal effect of not less than 70% and less than 90%, or phytotoxicity of 70% or more and less than 90%) in the data set on Setaria viridis [2]; 3 (herbicidal effect of not less than 50% and less than 70%, or phytotoxicity of 50% or more and less than 70%) with Setaria viridis [10]. The “Herbicidal activity DA” value is on record as 5 (herbicidal effect of not less than 90%, or phytotoxicity of 90% or more) with Digitaria adscendens [3] and 5 (herbicidal effect of not less than 90%, or phytotoxicity of 90% or more) in the data set with Digitaria adscendens [11]. The “Herbicidal activity SM: Stellaria media” value was 4 (herbicidal effect of not less than 70% and less than 90%, or phytotoxicity of 70% or more and less than 90%) with Stellaria media [4]; 4 (herbicidal effect of not less than 70% and less than 90%, or phytotoxicity of 70% or more and less than 90%) in the data set on Stellaria media [12]. Besides, the “Herbicidal activity (phytotoxicity) GM” value with soybean (Glycine max) [5] is 0 (herbicidal effect of not less than 0% and less than 10%, or phytotoxicity of 0% or more and less than 10%); with soybean (Glycine max) [7], 0 (herbicidal effect of not less than 0% and less than 10%, or phytotoxicity of 0% or more and less than 10%). Further, the “Herbicidal activity (phytotoxicity) TA” value in [6] is 0 (herbicidal effect of not less than 0% and less than 10%, or phytotoxicity of 0% or more and less than 10%); in data set [8] it was 0 (herbicidal effect of not less than 0% and less than 10%, or phytotoxicity of 0% or more and less than 10%). In addition, in the data set with Scirpus juncoides, the “Herbicidal activity SJ” value is recorded as 5 (herbicidal effect of not less than 90%, or phytotoxicity of 90% or more). The “Herbicidal activity AM” value with Ammannia multiflora was 5 (herbicidal effect of not less than 90%, or phytotoxicity of 90% or more). Also, the “Herbicidal activity EC” value with Echinochloa crusgalli is given as 5 (herbicidal effect of not less than 90%, or phytotoxicity of 90% or more). Besides, in the data set with Monochoria vaginalis, the “Herbicidal activity MV” value is recorded as 5 (herbicidal effect of not less than 90%, or phytotoxicity of 90% or more).
